For orientation: AC50 means the midpoint of the concentration-response curve, whichever way the signal moves. The term CC50 denotes the concentration that lowers cell viability or growth by half.

Activity calls are given as the source filed them. Bounds are passed on as bounds.

Results on 31 molecules are retold here after ChEMBL document CHEMBL1201862, “PubChem BioAssay data set” (2004).

Experiment [1] concerns the target T1, Ubiquitin-conjugating enzyme E2 N (Homo sapiens, UniProt P61088).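 Further: Dose-response confirmation in a TR-FRET assay detecting UBC13-driven polyubiquitin chain formation, inhibition measured.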
T1 sequence (P61088 whole entry): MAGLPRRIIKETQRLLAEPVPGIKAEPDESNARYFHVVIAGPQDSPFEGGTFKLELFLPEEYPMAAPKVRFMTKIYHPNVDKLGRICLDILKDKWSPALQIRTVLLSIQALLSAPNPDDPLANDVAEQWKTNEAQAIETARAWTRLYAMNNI
It counts as functional.

Experiment [2] is described as follows: inhibitors of SNCA 5'UTR-driven reporter translation, confirmation, H4 neuroglioma cells, luminescence (AID 1988). In kind it is functional, cell-based.
A short description of experiment [3]: Luminescence Cell-Based Dose Response HTS to Identify Inhibitors of 5'UTR Stem-Loop Driven Prion Protein mRNA Translation in H4 Neuroglioblastoma Cells. [Related pubchem assays: 1827 (Project Summary), 1813 (Primary HTS)]. It counts as functional.
Experiment [4] in a line: inhibitors of firefly luciferase expression or activity, dose response, H4 neuroglioma cells, luminescence (AID 1990). It counts as functional, cell-based.
Experiment [5] has as its target T2, Corticotropin-releasing factor receptor 2/Corticotropin-releasing factor-binding protein (Homo sapiens, UniProt P24387+Q13324).
T2 sequence (Q13324 whole entry): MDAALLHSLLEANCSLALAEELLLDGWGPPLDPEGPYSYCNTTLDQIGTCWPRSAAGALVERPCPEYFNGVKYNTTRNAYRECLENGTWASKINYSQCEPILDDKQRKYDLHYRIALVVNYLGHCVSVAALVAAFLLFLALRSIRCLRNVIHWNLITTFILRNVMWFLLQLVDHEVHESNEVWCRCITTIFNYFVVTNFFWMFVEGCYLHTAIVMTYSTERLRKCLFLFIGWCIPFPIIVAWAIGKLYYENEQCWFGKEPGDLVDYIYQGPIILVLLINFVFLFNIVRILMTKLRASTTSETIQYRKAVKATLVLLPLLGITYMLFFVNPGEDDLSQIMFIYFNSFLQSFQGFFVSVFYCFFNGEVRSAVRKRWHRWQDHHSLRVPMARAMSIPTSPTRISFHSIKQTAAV
T2 sequence (P24387 whole entry): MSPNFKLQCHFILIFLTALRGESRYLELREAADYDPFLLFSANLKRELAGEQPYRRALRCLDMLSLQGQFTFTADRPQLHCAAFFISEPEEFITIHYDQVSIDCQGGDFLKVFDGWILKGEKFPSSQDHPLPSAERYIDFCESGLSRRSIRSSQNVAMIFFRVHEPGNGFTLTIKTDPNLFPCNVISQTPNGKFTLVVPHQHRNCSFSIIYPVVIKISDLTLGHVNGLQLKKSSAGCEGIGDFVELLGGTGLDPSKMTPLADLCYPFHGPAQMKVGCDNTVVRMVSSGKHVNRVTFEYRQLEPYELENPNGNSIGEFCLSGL
The experiment can be described thus: activators of CRF receptor 2 with binding protein – uHTS hits, confirmation (AID 602473). It counts as functional. The settings on record: read-out: EC50_Mean.

For a further experiment, the system named is H9c2. The experiment can be described thus: cells. In kind it is functional, cell-based. To be noted: Rattus norvegicus, H9c2, Myocardium.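 Further: confirmatory concentration-response retest of ultra-high-throughput screening hits for modulation of myocardial damage; cell death induced by hydrogen peroxide oxidative stress; compound pretreatment for 60 min then peroxide exposure for 2 h; potency is for protecting the cells against peroxide damage rather than for killing them.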
The target in experiment [6] is T2, Corticotropin-releasing factor receptor 2/Corticotropin-releasing factor-binding protein. The experiment can be described thus: Dose Response confirmation of uHTS hits for small molecule antagonists of the CRF-binding protein and CRF-R2 receptor complex. It counts as functional. To be noted: read-out: IC50_Mean.
The next experiment concerns the target T3, Protein RecA (Mycobacterium tuberculosis, UniProt P9WHJ3).
T3 sequence (P9WHJ3 whole entry): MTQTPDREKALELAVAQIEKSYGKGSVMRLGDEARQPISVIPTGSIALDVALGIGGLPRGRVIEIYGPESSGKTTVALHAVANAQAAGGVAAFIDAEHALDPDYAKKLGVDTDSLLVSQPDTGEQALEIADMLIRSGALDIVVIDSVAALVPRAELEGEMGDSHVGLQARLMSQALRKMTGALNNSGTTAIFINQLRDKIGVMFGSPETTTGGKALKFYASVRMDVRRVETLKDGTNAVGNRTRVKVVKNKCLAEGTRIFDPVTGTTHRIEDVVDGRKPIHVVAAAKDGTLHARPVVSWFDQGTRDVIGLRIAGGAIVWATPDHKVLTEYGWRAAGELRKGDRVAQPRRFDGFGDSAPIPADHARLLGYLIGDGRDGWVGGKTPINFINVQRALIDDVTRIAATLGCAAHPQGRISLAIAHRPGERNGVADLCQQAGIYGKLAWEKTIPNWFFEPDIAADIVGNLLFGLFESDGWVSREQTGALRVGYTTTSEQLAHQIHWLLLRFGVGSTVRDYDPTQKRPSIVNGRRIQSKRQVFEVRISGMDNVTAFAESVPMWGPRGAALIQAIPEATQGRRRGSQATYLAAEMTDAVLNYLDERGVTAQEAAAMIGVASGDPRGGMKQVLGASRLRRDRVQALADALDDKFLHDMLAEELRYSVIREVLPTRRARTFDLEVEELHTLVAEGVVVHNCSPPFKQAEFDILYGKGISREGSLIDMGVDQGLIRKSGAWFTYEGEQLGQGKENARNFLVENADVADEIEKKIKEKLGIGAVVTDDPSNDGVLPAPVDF
The experiment can be described thus: Fluorescence Cell-Free Homogeneous Dose Retest to Identify Inhibitors of RecA-Intein Splicing Activity. [Related pubchem assays (depositor defined):AID2097, AID2223, AID489010, AID492950]. It counts as functional.

For experiment [7], the target named is T4, Replicative DNA helicase DnaB (Mycobacterium tuberculosis, UniProt P9WMR3).
T4 sequence (P9WMR3 whole entry): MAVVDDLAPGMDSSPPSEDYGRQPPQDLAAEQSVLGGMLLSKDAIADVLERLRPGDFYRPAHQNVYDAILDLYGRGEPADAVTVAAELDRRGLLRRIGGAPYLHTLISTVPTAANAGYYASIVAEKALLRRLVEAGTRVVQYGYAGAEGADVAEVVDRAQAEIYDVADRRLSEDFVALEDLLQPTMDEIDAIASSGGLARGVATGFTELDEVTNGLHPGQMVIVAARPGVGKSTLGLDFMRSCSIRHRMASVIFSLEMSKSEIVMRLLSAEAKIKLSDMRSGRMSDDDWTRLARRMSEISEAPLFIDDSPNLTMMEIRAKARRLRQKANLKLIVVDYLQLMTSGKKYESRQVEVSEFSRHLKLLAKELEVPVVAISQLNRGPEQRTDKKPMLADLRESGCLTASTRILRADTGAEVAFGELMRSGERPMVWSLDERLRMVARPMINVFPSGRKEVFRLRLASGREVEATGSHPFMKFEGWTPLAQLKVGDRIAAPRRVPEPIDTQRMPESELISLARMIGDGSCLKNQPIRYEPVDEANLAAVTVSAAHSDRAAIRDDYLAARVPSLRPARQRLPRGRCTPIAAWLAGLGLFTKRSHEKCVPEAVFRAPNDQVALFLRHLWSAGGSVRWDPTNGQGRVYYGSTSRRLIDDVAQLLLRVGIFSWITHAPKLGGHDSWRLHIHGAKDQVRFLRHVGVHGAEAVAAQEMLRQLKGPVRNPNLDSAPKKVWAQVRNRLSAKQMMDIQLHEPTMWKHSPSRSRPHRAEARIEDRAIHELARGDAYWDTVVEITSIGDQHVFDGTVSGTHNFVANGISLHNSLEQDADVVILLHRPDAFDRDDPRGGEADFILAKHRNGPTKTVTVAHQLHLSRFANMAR
Kind of experiment: DnaB intein splicing inhibitors, dose response, biochemical, cell-free fluorescence (AID 449749). It counts as functional.

The nature of experiment [8]: HEp-2 cell cytotoxicity, dose response, cytotoxicity control for RSV inhibitor project, HTS (AID 2410). In kind it is functional. To be noted: human respiratory syncytial virus.
A further experiment addresses Paired box protein Pax-8 (Homo sapiens, UniProt Q06710). Kind of experiment: inhibitors of PAX8-driven TPO luciferase reporter, dose response, RMG-I cells, cherry-pick (AID 687027).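 Further: luciferase reporter driven by Pax8 target thyroperoxidase promoter measured by SteadyGlo luminescence.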 It counts as functional, cell-based. A general note: A reporter such as luciferase makes a cellular process visible.
Another experiment addresses Cytochrome P450 2C9 (Homo sapiens, UniProt P11712).

Paired box protein Pax-8, sequence (Q06710 whole entry): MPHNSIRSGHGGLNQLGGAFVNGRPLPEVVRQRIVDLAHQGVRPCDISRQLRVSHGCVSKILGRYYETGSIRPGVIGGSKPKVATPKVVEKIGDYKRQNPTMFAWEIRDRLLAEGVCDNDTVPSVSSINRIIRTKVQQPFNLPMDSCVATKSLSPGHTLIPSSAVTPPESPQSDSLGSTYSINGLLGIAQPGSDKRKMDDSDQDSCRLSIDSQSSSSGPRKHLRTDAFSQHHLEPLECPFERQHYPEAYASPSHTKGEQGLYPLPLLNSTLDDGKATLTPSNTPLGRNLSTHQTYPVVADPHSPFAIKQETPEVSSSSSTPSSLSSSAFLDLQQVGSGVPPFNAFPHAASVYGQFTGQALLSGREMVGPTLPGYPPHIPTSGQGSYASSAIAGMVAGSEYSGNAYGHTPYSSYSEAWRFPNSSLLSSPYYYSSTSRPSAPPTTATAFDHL
Cytochrome P450 2C9, sequence (P11712 whole entry): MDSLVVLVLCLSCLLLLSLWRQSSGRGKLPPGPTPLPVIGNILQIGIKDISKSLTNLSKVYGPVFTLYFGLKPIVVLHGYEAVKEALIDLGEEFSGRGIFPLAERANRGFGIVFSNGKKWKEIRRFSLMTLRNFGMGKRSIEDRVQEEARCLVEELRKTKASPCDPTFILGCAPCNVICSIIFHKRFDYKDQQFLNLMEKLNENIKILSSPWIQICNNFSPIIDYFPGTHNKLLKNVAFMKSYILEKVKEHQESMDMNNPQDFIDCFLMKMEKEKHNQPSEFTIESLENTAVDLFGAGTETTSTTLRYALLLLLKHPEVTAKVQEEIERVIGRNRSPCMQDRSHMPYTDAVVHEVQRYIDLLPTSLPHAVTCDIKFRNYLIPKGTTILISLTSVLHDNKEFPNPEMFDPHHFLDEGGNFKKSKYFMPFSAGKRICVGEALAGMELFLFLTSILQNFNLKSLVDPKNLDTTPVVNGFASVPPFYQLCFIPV

Regarding `CC[C@@H](C)[C@@H]1CN([C@@H](C)CN2CCC[C@H]2CN2C(N)=NC[C@H]2CC(C)C)C(=N)N1CCc1ccc(Cl)c(Cl)c1`, the IC50 in experiment [1] was > 20 µM (inactive).
Take `COc1cccc(/C=C2/NC(=O)NC2=O)c1OCC(=O)Nc1ccccc1`: the EC50 in experiment [2], in [3] and in [4] was > 120 µM (not active) each time.
With `Cc1c(O)c(CN2CCCCC2)cc2c1oc(=O)c1ccccc12`, the EC50 in experiment [5] was > 53 µM (inactive). For the same molecule, the IC50 with H9c2 is 6.18 µM (active); in [6], > 47.1 µM (inactive).
`COc1ccc(OC)c(C2C(C#N)=C(N)Oc3c2c(C)nn3-c2ccc(C)cc2)c1` (stereo not drawn): the EC50 on Protein RecA was 4.91 µM (active). In [7], the AC50 was > 380 µM (inactive).
Take `C[C@@H]1CN([C@@H](C)CO)C(=O)c2cc(NC(=O)Nc3ccccc3)ccc2O[C@H]1CN(C)C(=O)Nc1cccc2ccccc12`: the IC50 in the experiment on H9c2 is 13.9 µM (active).
Same read-out and setting: under `CCN(CC)S(=O)(=O)c1ccc(N2CCOCC2)c(NC(=O)c2cc(-c3ccccn3)nc3ccccc23)c1` stands > 79 µM (inactive).
For the molecule `Cc1ccc2nc(-c3ccc(NC(=O)CCS(=O)(=O)c4ccccc4)cc3)sc2c1`, the EC50 in [2] is 6.26 µM (active); in experiment [3] it was 6.83 µM (active). The CC50 in experiment [8] was 37.3 µM (active).
For `Cc1ccc(/C=C2\SC(N3CCN(C(c4ccccc4)c4ccccc4)CC3)=NC2=O)o1`, on Protein RecA, the EC50 is 49.1 µM (active). The AC50 in experiment [7] is > 380 µM (inactive).
In the same order, the values of `COc1ccccc1C1C(C#N)=C(N)Oc2c1c(-c1ccccc1)nn2-c1ccccc1` (stereo not drawn) are 4.49 µM (active) and 9.85 µM (active).
The corresponding values for `COc1ccccc1CN1CCSCC1` are 5.08 µM (active) and 13.2 µM (active).
As to `Cn1c(=O)cc(OCCCC(=O)NCCN2CCN(c3ccccc3F)CC2)c2ccccc21`, the figures for the IC50 in experiment [1] and in [6] were > 20 µM (inactive) and > 47.1 µM (inactive), respectively. In addition, the EC50 in experiment [5] was > 53 µM (inactive).
`COc1ccc(/C=N/NC(=O)c2cc(-c3ccc4c(c3)OCO4)[nH]n2)cc1OC`: the IC50 in the experiment with H9c2 is > 79 µM (inactive).
Still for that read-out and setting: to `CCOCCn1ccc2c(OCC(=O)Nc3cc(OC)ccc3OC)cccc2c1=O` belongs > 79 µM (inactive).
Regarding `NC1=NC[C@H](Cc2ccccc2)N1CCc1cc(C(F)(F)F)cc(C(F)(F)F)c1`, the IC50 in experiment [1] is > 20 µM (inactive).
Turning to `Cn1nnnc1Sc1ncnc2scc(-c3ccccc3Cl)c12`, the AC50 on Paired box protein Pax-8 was 2.42 µM (active).
Turning to `CC(C)(C)OC(=O)N1CCC[C@H]1c1nnc(SCC(=O)Nc2ccc(Br)cc2)o1`, the IC50 with H9c2 is > 79 µM (inactive).
Consider `c1ccc2c(CCN3CCNC[C@H]3Cc3cccc4ccccc34)cccc2c1`, for which the IC50 in experiment [1] is > 20 µM (inactive).
Regarding `COc1ccc(OC)c(Nc2nc(N)c([N+](=O)[O-])c(N3CCOCC3)n2)c1`, the IC50 in the experiment with H9c2 was 17.7 µM (active).
The same measure, in the same setting: to `CCCN(CC(=O)Nc1ccccc1C)C(=O)Cc1nnc(O)c2ccccc12` belongs > 79 µM (inactive).
Consider `Fc1ccc(Nc2nc(Oc3ccccc3F)nc(N3CCCC3)n2)cc1`, for which the EC50 on Protein RecA was 0.946 µM (active). Also, the AC50 in experiment [7] is 3.2 µM (active).
Take `Cn1c(C(=O)NCCOc2ccccc2Cl)cc(=O)n(C)c1=O`: the EC50 in experiment [2], in [3] and in [4] was > 120 µM (not active) each time.
Take `COc1ccc(C(=O)COc2ccccc2C(N)=O)cc1`: the IC50 in the experiment with H9c2 is > 79 µM (inactive).
On to `COC(=O)Cc1c(C)[nH]n(-c2cc(Cl)cc(Cl)c2)c1=O`, for which, at Protein RecA, the EC50 is 16.9 µM (active). Moreover, the AC50 in experiment [7] was 11 µM (active).
With `Cc1ccc(OCCCC(=O)Nc2ccc(S(=O)(=O)N3CCOCC3)cc2)cc1`, in experiment [1], the IC50 was > 20 µM (inactive).
Consider `COC(=O)c1[nH]c2ccc(C)cc2c1NC(=O)C1=COCCO1`, for which the EC50 in experiment [2], in [3] and in experiment [4] was > 120 µM (not active) in each case.
With `NS(=O)(=O)c1ccc(CCNC(=O)c2ccc([N+](=O)[O-])cc2[N+](=O)[O-])cc1`, the EC50 in experiment [2], in experiment [3] and in experiment [4] was > 120 µM (not active) throughout.
`Cc1c(Br)c(C(=O)NNC(=O)c2ccc(C(C)(C)C)cc2)nn1C`: in experiment [1], the IC50 was > 20 µM (inactive).
As to `Cc1ccc2nc(O)c(N=C(N)S)nc2c1`, in [1], the IC50 is > 20 µM (inactive). The AC50 at Cytochrome P450 2C9 was 10 µM (inconclusive).
On to `CN(C)C(CNC(=O)c1coc2ccccc2c1=O)c1ccccc1` (stereo not drawn), for which, in [1], the IC50 is > 20 µM (inactive).
For `COC(=O)c1ccc(Cn2c(C)c(C(=O)NCc3cccs3)sc2=O)o1`, the IC50 in the experiment with H9c2 was 12.1 µM (active).
Take `O=C1NCCCC2c3c(cc(Br)c(O)c3Br)OC12N1CCCCC1` (stereo not drawn): on Protein RecA, the EC50 was 5.46 µM (active). Further, the AC50 in experiment [7] was 32.1 µM (active).
